From PubChem BioAssay (NCI)
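Where inhibition never reached the appropriate level, the endpoint shown equals the highest concentration tested. Otherwise, values were interpolated linearly from a five-concentration, 48-hour dose response in 96-well plates. GI50: concentration for 50% inhibition of growth. TGI denotes the concentration required for complete inhibition of growth.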

Tests used:
Experiment in all cases: inhibition of tumour cell growth, NCI panel, 48 h
K-562 leukemia = test system: K-562 leukemia
A498 renal = test system: A498 renal
NCI-H522 lung = test system: NCI-H522 lung
NCI-H226 lung = test system: NCI-H226 lung
DU-145 prostate = test system: DU-145 prostate
SNB-75 CNS = test system: SNB-75 CNS
786-0 renal = test system: 786-0 renal
RPMI-8226 leukemia = test system: RPMI-8226 leukemia
HOP-92 NSCLC = test system: HOP-92 NSCLC
HT29 colon = test system: HT29 colon

Structure (SMILES)	GI50 (K-562 leukemia)	TGI (K-562 leukemia)	GI50 (A498 renal)	TGI (A498 renal)	GI50 (NCI-H522 lung)	TGI (NCI-H522 lung)	GI50 (NCI-H226 lung)	TGI (NCI-H226 lung)	GI50 (DU-145 prostate)	TGI (DU-145 prostate)	GI50 (SNB-75 CNS)	TGI (SNB-75 CNS)	GI50 (786-0 renal)	TGI (786-0 renal)	GI50 (RPMI-8226 leukemia)	TGI (RPMI-8226 leukemia)	GI50 (HOP-92 NSCLC)	TGI (HOP-92 NSCLC)	GI50 (HT29 colon)	TGI (HT29 colon)
CC1(C)[C@@H](OC(N)=O)[C@H]2O[C@H]2[C@]2(CO)[C@H]3CC[C@]4(C)[C@@H](c5ccc(=O)oc5)[C@@H](Cl)C[C@]4(O)C3=CC[C@@H]12	0.00978 µM	0.0547 µM	14.4 nM	0.0748 µM	4.55 nM	0.0147 µM	6.1 nM	0.0152 µM	5.09 nM	0.0106 µM	0.00467 µM	0.0138 µM	5.2 nM	0.0136 µM	< 11 nM	0.126 µM	12.7 nM	0.0921 µM	0.00796 µM	0.0238 µM
COc1ccc2c(c1)C(=O)c1c-2c(N(C)C)nc2ccccc12	> 100 µM	> 100 µM	> 100000 nM	> 100 µM	> 100000 nM	> 100 µM	> 100000 nM	> 100 µM	> 100000 nM	> 100 µM	57.6 µM	> 100 µM	> 100000 nM	> 100 µM	> 100000 nM	> 100 µM	72600 nM	> 100 µM	> 100 µM	> 100 µM
CC1=C(CO)C(=O)O[C@@H]([C@@H](C)[C@H]2CC[C@H]3[C@@H]4C[C@@H](O)[C@@]5(O)CC=CC(=O)[C@]5(C)[C@H]4CC[C@]23C)C1		> 100 µM		39.5 µM		30.7 µM		> 100 µM		> 100 µM		> 100 µM		90.8 µM		92.2 µM		> 100 µM		> 100 µM
O=C(/C=C/c1ccc([N+](=O)[O-])cc1)c1ccc2c3c(cccc13)CC2	4.37 µM	> 100 µM	11600 nM	43.5 µM	9770 nM	34.5 µM	> 37200 nM	> 100 µM	4230 nM	> 40.9 µM	4.95 µM	23.8 µM	10200 nM	> 88.9 µM	1640 nM	4.84 µM	2430 nM	15.4 µM	5.05 µM	> 100 µM
COc1ccc(C(=O)c2cc3c(N)c(C(=O)Nc4cccc5ccccc45)sc3nc2C)cc1	0.163 µM	> 50 µM	119 nM	0.764 µM	226 nM	> 50 µM	332 nM	> 50 µM	190 nM	> 50 µM	0.137 µM	> 50 µM	305 nM	> 50 µM	184 nM		181 nM	> 13.5 µM	0.183 µM	> 50 µM
CC(C)(O)CC(=O)NCCn1ccc2ncnc(Nc3ccc(Oc4cccc(C(F)(F)F)c4)c(Cl)c3)c21	4.54 µM	> 10 µM	2900 nM	> 10 µM	535 nM	> 10 µM	3190 nM	> 10 µM	2960 nM	> 10 µM	4.72 µM	> 10 µM	4010 nM	> 10 µM	4680 nM	> 10 µM	1630 nM	> 10 µM	3.83 µM	> 10 µM
CCc1ccc(NC(=O)COC(=O)c2cc([N+](=O)[O-])ccc2Sc2nnnn2C)cc1	9.4 µM	50.6 µM	21500 nM	74.9 µM	11500 nM	36.3 µM	17000 nM	36.1 µM	4900 nM	28.2 µM	13.1 µM	35 µM	21100 nM	72.9 µM	6730 nM	41.4 µM	22800 nM	82.7 µM	11.1 µM	29.3 µM
COc1ccc(C2SC(C)C(=O)N2NC(=O)C(O)c2ccccc2)cc1OC (stereo not given)	> 100 µM	> 100 µM	> 100000 nM	> 100 µM	> 100000 nM	> 100 µM	> 100000 nM	> 100 µM	> 100000 nM	> 100 µM	> 100 µM	> 100 µM	> 100000 nM	> 100 µM	> 100000 nM	> 100 µM	> 100000 nM	> 100 µM	> 100 µM	> 100 µM
Cn1cc(C2=C(c3cccc(OCC(O)CO)c3)C(=O)NC2=O)c2ccccc21 (stereo not given)	> 25 µM	> 25 µM	> 25000 nM	> 25 µM	> 25000 nM	> 25 µM	> 25000 nM	> 25 µM	> 25000 nM	> 25 µM	5.86 µM	> 25 µM	> 25000 nM	> 25 µM	> 25000 nM	> 25 µM	> 25000 nM	> 25 µM	> 25 µM	> 25 µM
Cc1ccc(CNc2c3ccccc3nc3cc(NC(=O)CCN4CCCC4)ccc23)cc1			1130 nM	2.38 µM	509 nM	1.95 µM	1020 nM	2.46 µM	516 nM	1.66 µM	1.06 µM	2.26 µM	732 nM	2.04 µM	412 nM	1.94 µM	516 nM	2.13 µM		
Nc1nc(Nc2ccc(C3CCC(N4CCOCC4)CC3)cc2)nn1-c1ccccn1 (stereo not given)	2.83 µM	> 100 µM	5000 nM	20.1 µM	8510 nM	32.7 µM	2400 nM	> 58.4 µM	6400 nM	> 100 µM	1.9 µM	11.9 µM	2220 nM	11.4 µM	2570 nM	6.1 µM	1590 nM	> 27.5 µM	3.11 µM	> 100 µM
CN1CC[C@@H](c2c(O)cc(O)c3c(=O)cc(-c4ccccc4Cl)oc23)[C@@H]1CO	0.297 µM	> 2.58 µM	215 nM	0.553 µM	357 nM	2.76 µM	239 nM	0.878 µM	365 nM	> 10 µM	0.224 µM	0.622 µM	339 nM	> 10 µM	362 nM	2.73 µM	190 nM	0.701 µM	0.442 µM	6.66 µM
COc1cc([C@H]2OC[C@H]3[C@@H]2CO[C@@H]3c2cc(OC)c3c(c2)OCO3)cc(OC)c1OC		> 100 µM		> 100 µM		> 100 µM		> 100 µM		> 100 µM		> 100 µM		> 100 µM		> 100 µM		> 100 µM		> 100 µM
